Reference: patent publication US20230210831A1, “CHRONIC KIDNEY DISEASE TREATMENT OR PREVENTION METHOD” (Japan Tobacco Inc., priority 2019, published 2023)
Several values for one entry are separate records, joined by “and”; a condition that tells them apart may be missing. Identical values can stand only once.

How the values were obtained:
Assay type in all cases: cell-based
[1] = tested on: Salmonella typhimurium TA1537; assay: Ames test (reverse mutation test), TA1537; details: for Number of revertant colonies TA1537: S9 Mix -
Experimental: (§1) The solvent used herein was dimethyl sulfoxide (DMSO, 100 µL/plate).
(§2) The mixtures were preincubated at 37° C. for 20 minutes while shaking. […] Two plates per treatment were used.

[2] = tested on: Salmonella typhimurium TA100; assay: Ames test (reverse mutation test), TA100; details: for Number of revertant colonies TA100: S9 Mix -
Experimental: as §1, §2

[3] = tested on: Salmonella typhimurium TA98; assay: Ames test (reverse mutation test), TA98; details: for potential to induce reverse mutations: TA98 with S9 mix; for Number of revertant colonies TA98: S9 Mix -
Experimental: as §1, §2

[4] = tested on: Escherichia coli WP2uvrA; assay: Ames test (reverse mutation test), WP2uvrA; details: for Number of revertant colonies: WP2uvrA; for Number of revertant colonies WP2uvrA: S9 Mix -
Experimental: as §1, §2

[5] = tested on: Salmonella typhimurium TA1535; assay: Ames test (reverse mutation test), TA1535
Experimental: as §1, §2

## COc1ccc2nc3cc(Cl)ccc3c(NCCCNCCCl)c2c1 [ICR-191]
[1]; dose 1.0 µg/plate, positive control
  Number of revertant colonies TA1537: 1448 and 1435 and 1413 and 1096 and 1397
[1]; TA1537, -S9 mix, 1.0 µg/plate (positive control)
  Number of revertant colonies: 1170 and 1131

## CC(C)(C)Oc1cccc(-c2cc(N)nn2-c2ccccc2)c1 [Metabolite C]
[2]; TA100, +S9 mix, 2.34 µg/plate
  Number of revertant colonies: 526
[2]; TA100, +S9 mix, 4.69 µg/plate
  Number of revertant colonies: 778
[2]; TA100, +S9 mix, 9.38 µg/plate
  Number of revertant colonies: 1210
[2]; TA100, +S9 mix, 18.8 µg/plate
  Number of revertant colonies: 1745
[2]; TA100, +S9 mix, 37.5 µg/plate
  Number of revertant colonies: 2049
[2]; TA100, +S9 mix, 75 µg/plate
  Number of revertant colonies: 2147
[2]; TA100, +S9 mix, 150 µg/plate
  Number of revertant colonies: 2043
[2]; TA100, +S9 mix, 300 µg/plate
  Number of revertant colonies: 1412
[2]; TA100, -S9 mix, 2.3 µg/plate
  Number of revertant colonies: 87
[2]; TA100, -S9 mix, 6.9 µg/plate
  Number of revertant colonies: 99
[2]; TA100, -S9 mix, 21 µg/plate
  Number of revertant colonies: 48
[2]; TA100, -S9 mix, 62 µg/plate
  Number of revertant colonies: 41
[2]; TA100, -S9 mix, 185 µg/plate
  Number of revertant colonies: 45
[2]; TA100, -S9 mix, 556 µg/plate
  Number of revertant colonies: 33
[2]; TA100, -S9 mix, 1667 µg/plate
  Number of revertant colonies: 25
[2]; TA100, -S9 mix, 5000 µg/plate
  Number of revertant colonies: 35
[2]; TA100 with S9 mix
  potential to induce reverse mutations: showed potential to induce reverse mutations
[3]; TA98, +S9 mix, 2.34 µg/plate
  Number of revertant colonies: 38
[3]; TA98, +S9 mix, 4.69 µg/plate
  Number of revertant colonies: 36
[3]; TA98, +S9 mix, 9.38 µg/plate
  Number of revertant colonies: 73
[3]; TA98, +S9 mix, 18.8 µg/plate
  Number of revertant colonies: 107
[3]; TA98, +S9 mix, 37.5 µg/plate
  Number of revertant colonies: 133
[3]; TA98, +S9 mix, 75 µg/plate
  Number of revertant colonies: 153
[3]; TA98, +S9 mix, 150 µg/plate
  Number of revertant colonies: 133
[3]; TA98, +S9 mix, 300 µg/plate
  Number of revertant colonies: 138
[3]; TA98, -S9 mix, 2.3 µg/plate
  Number of revertant colonies: 14
[3]; TA98, -S9 mix, 6.9 µg/plate
  Number of revertant colonies: 15
[3]; TA98, -S9 mix, 21 µg/plate
  Number of revertant colonies: 17
[3]; TA98, -S9 mix, 62 µg/plate
  Number of revertant colonies: 8
[3]; TA98, -S9 mix, 185 µg/plate
  Number of revertant colonies: 8
[3]; TA98, -S9 mix, 556 µg/plate
  Number of revertant colonies: 8
[3]; TA98, -S9 mix, 1667 µg/plate
  Number of revertant colonies: 8
[3]; TA98, -S9 mix, 5000 µg/plate
  Number of revertant colonies: 0
[3]
  potential to induce reverse mutations: showed potential to induce reverse mutations
[4]; +S9 mix, 2.3 µg/plate
  Number of revertant colonies: 28
[4]; +S9 mix, 6.9 µg/plate
  Number of revertant colonies: 23
[4]; +S9 mix, 21 µg/plate
  Number of revertant colonies: 21
[4]; +S9 mix, 62 µg/plate
  Number of revertant colonies: 26
[4]; +S9 mix, 185 µg/plate
  Number of revertant colonies: 17
[4]; +S9 mix, 556 µg/plate
  Number of revertant colonies: 8
[4]; +S9 mix, 1667 µg/plate
  Number of revertant colonies: 12
[4]; +S9 mix, 5000 µg/plate
  Number of revertant colonies: 16
[4]; -S9 mix, 2.3 µg/plate
  Number of revertant colonies: 15
[4]; -S9 mix, 6.9 µg/plate
  Number of revertant colonies: 16
[4]; -S9 mix, 21 µg/plate
  Number of revertant colonies: 17
[4]; -S9 mix, 62 µg/plate
  Number of revertant colonies: 13
[4]; -S9 mix, 185 µg/plate
  Number of revertant colonies: 13
[4]; -S9 mix, 556 µg/plate
  Number of revertant colonies: 13
[4]; -S9 mix, 1667 µg/plate
  Number of revertant colonies: 10
[4]; -S9 mix, 5000 µg/plate
  Number of revertant colonies: 11
[1]; TA1537, +S9 mix, 2.3 µg/plate
  Number of revertant colonies: 6
[1]; TA1537, +S9 mix, 6.9 µg/plate
  Number of revertant colonies: 7
[1]; TA1537, +S9 mix, 21 µg/plate
  Number of revertant colonies: 7
[1]; TA1537, +S9 mix, 62 µg/plate
  Number of revertant colonies: 9
[1]; TA1537, +S9 mix, 185 µg/plate
  Number of revertant colonies: 9
[1]; TA1537, +S9 mix, 556 µg/plate
  Number of revertant colonies: 4
[1]; TA1537, +S9 mix, 1667 µg/plate
  Number of revertant colonies: 4
[1]; TA1537, +S9 mix, 5000 µg/plate
  Number of revertant colonies: 5
[1]; TA1537, -S9 mix, 2.3 µg/plate
  Number of revertant colonies: 3
[1]; TA1537, -S9 mix, 6.9 µg/plate
  Number of revertant colonies: 1
[1]; TA1537, -S9 mix, 21 µg/plate
  Number of revertant colonies: 3
[1]; TA1537, -S9 mix, 62 µg/plate
  Number of revertant colonies: 3
[1]; TA1537, -S9 mix, 185 µg/plate
  Number of revertant colonies: 2
[1]; TA1537, -S9 mix, 556 µg/plate
  Number of revertant colonies: 0
[1]; TA1537, -S9 mix, 1667 µg/plate
  Number of revertant colonies: 0
[1]; TA1537, -S9 mix, 5000 µg/plate
  Number of revertant colonies: 0
[5]; TA1535, +S9 mix, 2.3 µg/plate
  Number of revertant colonies: 8
[5]; TA1535, +S9 mix, 6.9 µg/plate
  Number of revertant colonies: 8
[5]; TA1535, +S9 mix, 21 µg/plate
  Number of revertant colonies: 5
[5]; TA1535, +S9 mix, 62 µg/plate
  Number of revertant colonies: 4
[5]; TA1535, +S9 mix, 185 µg/plate
  Number of revertant colonies: 5
[5]; TA1535, +S9 mix, 556 µg/plate
  Number of revertant colonies: 4
[5]; TA1535, +S9 mix, 1667 µg/plate
  Number of revertant colonies: 5
[5]; TA1535, +S9 mix, 5000 µg/plate
  Number of revertant colonies: 4
[5]; TA1535, -S9 mix, 21 µg/plate
  Number of revertant colonies: 6
[5]; TA1535, -S9 mix, 556 µg/plate
  Number of revertant colonies: 0

## CC(C)(OCc1cc(F)cc(-c2cc(N)nn2-c2ccc(F)cc2)c1)C(F)(F)F [Metabolite D]
[2]; dose 2.3 µg/plate
  Number of revertant colonies TA100: 99
[2]; dose 6.9 µg/plate
  Number of revertant colonies TA100: 98
[2]; dose 21 µg/plate
  Number of revertant colonies TA100: 71
[2]; dose 62 µg/plate
  Number of revertant colonies TA100: 96
[2]; dose 185 µg/plate
  Number of revertant colonies TA100: 85
[2]; dose 556 µg/plate
  Number of revertant colonies TA100: 86
[2]; dose 1667 µg/plate
  Number of revertant colonies TA100: 69
[2]; dose 5000 µg/plate
  Number of revertant colonies TA100: 82
[2]; TA100, +S9 mix, 2.3 µg/plate
  Number of revertant colonies: 139
[2]; TA100, +S9 mix, 6.9 µg/plate
  Number of revertant colonies: 203
[2]; TA100, +S9 mix, 21 µg/plate
  Number of revertant colonies: 237
[2]; TA100, +S9 mix, 62 µg/plate
  Number of revertant colonies: 185
[2]; TA100, +S9 mix, 185 µg/plate
  Number of revertant colonies: 151
[2]; TA100, +S9 mix, 556 µg/plate
  Number of revertant colonies: 119
[2]; TA100, +S9 mix, 1667 µg/plate
  Number of revertant colonies: 100
[2]; TA100, +S9 mix, 5000 µg/plate
  Number of revertant colonies: 98
[3]; dose 2.3 µg/plate
  Number of revertant colonies TA98: 27
[3]; dose 6.9 µg/plate
  Number of revertant colonies TA98: 22
[3]; dose 21 µg/plate
  Number of revertant colonies TA98: 23
[3]; dose 62 µg/plate
  Number of revertant colonies TA98: 25
[3]; dose 185 µg/plate
  Number of revertant colonies TA98: 32
[3]; dose 556 µg/plate
  Number of revertant colonies TA98: 21
[3]; dose 1667 µg/plate
  Number of revertant colonies TA98: 23
[3]; dose 5000 µg/plate
  Number of revertant colonies TA98: 21
[3]; TA98, +S9 mix, 2.3 µg/plate
  Number of revertant colonies: 39
[3]; TA98, +S9 mix, 6.9 µg/plate
  Number of revertant colonies: 42
[3]; TA98, +S9 mix, 21 µg/plate
  Number of revertant colonies: 52
[3]; TA98, +S9 mix, 62 µg/plate
  Number of revertant colonies: 47
[3]; TA98, +S9 mix, 185 µg/plate
  Number of revertant colonies: 49
[3]; TA98, +S9 mix, 556 µg/plate
  Number of revertant colonies: 51
[3]; TA98, +S9 mix, 1667 µg/plate
  Number of revertant colonies: 57
[3]; TA98, +S9 mix, 5000 µg/plate
  Number of revertant colonies: 88
[3]
  potential to induce reverse mutations: showed potential to induce reverse mutations
[4]; dose 2.3 µg/plate
  Number of revertant colonies WP2uvrA: 25
[4]; dose 6.9 µg/plate
  Number of revertant colonies WP2uvrA: 27
[4]; dose 21 µg/plate
  Number of revertant colonies WP2uvrA: 22
[4]; dose 62 µg/plate
  Number of revertant colonies WP2uvrA: 21
[4]; dose 185 µg/plate
  Number of revertant colonies WP2uvrA: 22
[4]; dose 556 µg/plate
  Number of revertant colonies WP2uvrA: 16
[4]; dose 1667 µg/plate
  Number of revertant colonies WP2uvrA: 18
[4]; dose 5000 µg/plate
  Number of revertant colonies WP2uvrA: 20
[4]; +S9 mix, 2.3 µg/plate
  Number of revertant colonies: 31
[4]; +S9 mix, 6.9 µg/plate
  Number of revertant colonies: 18
[4]; +S9 mix, 21 µg/plate
  Number of revertant colonies: 24
[4]; +S9 mix, 62 µg/plate
  Number of revertant colonies: 18
[4]; +S9 mix, 185 µg/plate
  Number of revertant colonies: 23
[4]; +S9 mix, 556 µg/plate
  Number of revertant colonies: 32
[4]; +S9 mix, 1667 µg/plate
  Number of revertant colonies: 28
[4]; +S9 mix, 5000 µg/plate
  Number of revertant colonies: 28
[1]; dose 2.3 µg/plate
  Number of revertant colonies TA1537: 11
[1]; dose 6.9 µg/plate
  Number of revertant colonies TA1537: 13
[1]; dose 21 µg/plate
  Number of revertant colonies TA1537: 11
[1]; dose 62 µg/plate
  Number of revertant colonies TA1537: 7
[1]; dose 185 µg/plate
  Number of revertant colonies TA1537: 6
[1]; dose 556 µg/plate
  Number of revertant colonies TA1537: 7
[1]; dose 1667 µg/plate
  Number of revertant colonies TA1537: 6
[1]; dose 5000 µg/plate
  Number of revertant colonies TA1537: 8
[1]; TA1537, +S9 mix, 2.3 µg/plate
  Number of revertant colonies: 14
[1]; TA1537, +S9 mix, 6.9 µg/plate
  Number of revertant colonies: 20
[1]; TA1537, +S9 mix, 21 µg/plate
  Number of revertant colonies: 13
[1]; TA1537, +S9 mix, 62 µg/plate
  Number of revertant colonies: 18
[1]; TA1537, +S9 mix, 185 µg/plate
  Number of revertant colonies: 15
[1]; TA1537, +S9 mix, 556 µg/plate
  Number of revertant colonies: 15
[1]; TA1537, +S9 mix, 1667 µg/plate
  Number of revertant colonies: 19
[1]; TA1537, +S9 mix, 5000 µg/plate
  Number of revertant colonies: 24
[1]; TA1537 with S9 mix
  potential to induce reverse mutations: showed potential to induce reverse mutations
[5]; S9 Mix -, dose 1667 µg/plate
  Number of revertant colonies TA1535: 6
[5]; TA1535, +S9 mix, 1667 µg/plate
  Number of revertant colonies: 7

## [N-]=[N+]=[N-].[Na+] [SA]
[5]; TA1535, -S9 mix, 0.5 µg/plate (positive control)
  Number of revertant colonies: 217 and 222
